This is an account of results in patent US10449186B2, “Phenylethynyl-substituted benzenes and heterocycles for the treatment of cancer” (UNIVERSITY OF KENTUCKY RESEARCH FOUNDATION, priority 2017, dated 2019).

In data set [1] the test system is LS174T colon cancer cells. Put plainly: LS174T cell proliferation assay. It is filed as cell-based. The arrangement: effects on LS174T colon cancer cell proliferation (Table 3): unit not given here. To be noted: for inhibition at 1 µM / inhibition at 10 µM / inhibition at 0.1 µM: Homo sapiens, LS174T. How it is done: Cell proliferation assay. LS174T cells were grown in RPMI medium (Mediatech) supplemented with 5% fetal bovine serum and 1% penicillin/streptomycin. For cell proliferation assays, 3×10^4 cells/well growing in 12-well plates were treated with DMSO or inhibitors. The cell numbers and viability were analyzed by Vi-Cell Cell Viability Analyzer after 4 days. The IC50 values were calculated with GraphPad Prim 5.

The mark [2] stands for this setting: Table 1, 1 μM, read-out: inhibition of proliferation (%) of colon cancer LS174T cells.
[3] abbreviates: Table 1, 10 μM, read-out: inhibition of proliferation (%) of colon cancer LS174T cells.
[4] abbreviates: Table 2, 100 nM, read-out: inhibition of cell proliferation (%) of colon cancer LS174T cells.
Where [5] appears, read: Table 2, 1 μM, read-out: inhibition of cell proliferation (%) of colon cancer LS174T cells.
The mark [6] stands for this setting: Table 2, 10 μM, read-out: inhibition of cell proliferation (%) of colon cancer LS174T cells.
The mark [7] stands for this setting: 1 μM, read-out: inhibition of LS174T colon cancer cell proliferation.
The mark [8] stands for this setting: read-out: inhibition of LS174T colon cancer cell proliferation.
Setting [9] is: read-out: inhibition of cell proliferation (%) of colon cancer LS174T cells.

Each structure is given as a SMILES string. Where a name gives a salt, the structure may show the parent alone. Read-outs that look alike come from different tables or passages of the source. Bounds are passed on as bounds.

For orientation: melting point means the temperature, or range, at which the solid turns liquid.

Consider `CN1CCN(c2ncc(C#Cc3c(F)cccc3F)c3ccccc23)CC1` (as salt: hydrochloride) [Compound 5pp, 4-((2,6-Difluorophenyl)ethynyl)-1-(4-methylpiperazin-1-yl)isoquinoline], for which the melting point is 70 to 72 °C.
For the compound `O=C1CCCCN1c1ccc(C#Cc2c(F)cccc2F)cc1` [Compound 4a, 1-(4-((2,6-Difluorophenyl)ethynyl)phenyl)piperidin-2-one], the melting point was 148 to 150 °C. For the same compound, the inhibition at 1 µM in data set [1] (setting [2]) turned out to be 6.4%. Moreover, the inhibition at 10 µM in data set [1] (setting [3]) came out at 68.1%.
Compound `Fc1cccc(F)c1C#Cc1ccc(N2CCOCC2)cc1` [Compound 4b, 4-(4-((2,6-Difluorophenyl)ethynyl)phenyl)morpholine] came in with a melting point of 144 to 145 °C. For the same compound, in data set [1] (setting [2]), the inhibition at 1 µM stood at 13%. Further, in data set [1] (setting [3]), the inhibition at 10 µM was found to be 32.1%.
In turn, `CN1CCN(c2ccc(C#Cc3c(F)cccc3F)cc2)CC1` [Compound 4c, 1-(4-((2,6-Difluorophenyl)ethynyl)phenyl)-4-methylpiperazine] displayed a melting point of 126 to 128 °C. The inhibition at 1 µM in data set [1] (setting [2]) was found to be 19.9%. Moreover, the inhibition at 10 µM in data set [1] (setting [3]) was 99.6%.
As for `Fc1cccc(F)c1C#Cc1ccc(-n2cccc2)cc1` [Compound 4d, 1-(4-((2,6-Difluorophenyl)ethynyl)phenyl)-1H-pyrrole], the melting point fell in the range of 122 to 124 °C. Further, the “activity in a cell proliferation assay” value in data set [1] (100 nM) is on record as “considerably diminished activity”. Moreover, in data set [1] (1 μM), the “activity in a cell proliferation assay” value is given as “comparable to 4-((2,6-difluorophenyl)ethynyl)-N,N-dimethylaniline (2)”. Further, the inhibition at 0.1 µM in data set [1] (Table 1, 100 nM, read-out: inhibition of proliferation (%) of colon cancer LS174T cells) worked out at 11%. The inhibition at 1 µM in data set [1] (setting [2]) was determined as 77.5%. The inhibition at 10 µM in data set [1] (setting [3]) came out at 96.7%.
Regarding `Cc1ccc(C)n1-c1ccc(C#Cc2c(F)cccc2F)cc1` [Compound 4e, 1-(4-((2,6-Difluorophenyl)ethynyl)phenyl)-2,5-dimethyl-1H-pyrrole], the melting point is 124 to 126 °C. For the same compound, the inhibition at 1 µM in data set [1] (setting [2]) was 20.9%. Moreover, the inhibition at 10 µM in data set [1] (setting [3]) was 78.8%.
As to `CN(C)c1ccc(C#Cc2c(F)cccc2F)nc1` [Compound 5a, 6-((2,6-Difluorophenyl)ethynyl)-N,N-dimethylpyridin-3-amine], the melting point was in the range of 120 to 122 °C. The inhibition at 0.1 µM in data set [1] (setting [4]) came out at 15.1 ± 7.4%. The inhibition at 1 µM in data set [1] (setting [5]) is 68.9 ± 1.3%. The inhibition at 10 µM in data set [1] (setting [6]) is 85.2 ± 3.8%.
In the case of `Fc1cccc(F)c1C#Cc1ccc2nccc(Cl)c2c1` [Compound 5aa, 4-Chloro-6-((2,6-difluorophenyl)ethynyl)quinoline], the melting point fell in the range of 120 to 122 °C. The inhibition at 1 µM in data set [1] (setting [5]) is 43.8 ± 10.8%. Further, the inhibition at 10 µM in data set [1] (setting [6]) turned out to be 89.7 ± 4.3%.
Take `CN(C)c1ccc(C#Cc2c(F)cccc2F)cn1` [Compound 5b, 5-((2,6-Difluorophenyl)ethynyl)-N,N-dimethylpyridin-2-amine]: the melting point fell in the range of 110 to 112 °C. Also, in data set [1] (setting [7]), the inhibition at 1 µM was over 75%. Also, the inhibition at 0.1 µM in data set [1] (setting [4]) was 0%. The inhibition at 1 µM in data set [1] (setting [5]) was 77.9 ± 7%. Further, in data set [1] (setting [6]), the inhibition at 10 µM was found to be 83.6 ± 7.8%.
`Fc1cccc(F)c1C#Cc1ccc2c(Cl)ccnc2c1` [Compound 5bb, 4-Chloro-7-((2,6-difluorophenyl)ethynyl)quinoline]: the melting point was in the range of 148 to 150 °C. For the same compound, in data set [1] (setting [5]), the inhibition at 1 µM came to 23.1 ± 8.3%. In addition, in data set [1] (setting [6]), the inhibition at 10 µM worked out at 70.8 ± 4.8%.
Consider `Fc1cccc(F)c1C#Cc1ccc(-n2cccc2)nc1` [Compound 5c, 5-((2,6-Difluorophenyl)ethynyl)-2-(1H-pyrrol-1-yl)pyridine], for which the melting point lay within 121 to 123 °C. For the same compound, in data set [1] (setting [8]), the inhibition at 1 µM was over 75%. Moreover, in data set [1] (setting [9]), the inhibition at 0.1 µM is 0%, the inhibition at 1 µM worked out at 80.5 ± 6.6% and the inhibition at 10 µM turned out to be 95.3 ± 0.8%.
As for `Nc1ccnc2ccc(C#Cc3c(F)cccc3F)cc12` [Compound 5cc, 6-((2,6-Difluorophenyl)ethynyl)quinolin-4-amine], the melting point was in the range of 220 to 222 °C. Also, in data set [1] (setting [4]), the inhibition at 0.1 µM amounted to 0%. For the same compound, the inhibition at 1 µM in data set [1] (setting [5]) worked out at 66.2 ± 3.1%. The inhibition at 10 µM in data set [1] (setting [6]) is 93.9 ± 0.4%.
For the compound `CN(C)c1cnc(C#Cc2c(F)cccc2F)cn1` [Compound 5d, 5-((2,6-Difluorophenyl)ethynyl)-N,N-dimethylpyrazin-2-amine], the melting point fell in the range of 137 to 138 °C. Also, the inhibition at 1 µM in data set [1] (setting [5]) came out at 22.9 ± 9.8%. Also, the inhibition at 10 µM in data set [1] (setting [6]) turned out to be 91.6 ± 3%.
Taken in the same sequence, the figures for `Nc1ccnc2cc(C#Cc3c(F)cccc3F)ccc12` [Compound 5dd, 7-((2,6-Difluorophenyl)ethynyl)quinolin-4-amine] were 219 to 221 °C, 23.6 ± 2.5% and 97.7 ± 2.2%.
Taken in the same sequence, the figures for `Fc1cccc(F)c1C#Cc1ccc2[nH]ccc2c1` [Compound 5e, 5-((2,6-Difluorophenyl)ethynyl)-1H-indole] were 131 to 133 °C, 52.9 ± 5.9% and 91.5 ± 3.5%.
Take `CN(C)c1ccc2cc(C#Cc3c(F)cccc3F)ccc2n1` [Compound 5ee, 6-((2,6-Difluorophenyl)ethynyl)-N,N-dimethylquinolin-2-amine]: the melting point lay in the range of 142 to 144 °C. In data set [1] (setting [9]), the inhibition at 1 µM came to 2 ± 11.9% and the inhibition at 10 µM came out at 38.7 ± 4.3%.
Consider `Cn1ccc2cc(C#Cc3c(F)cccc3F)ccc21` [Compound 5f, 5-((2,6-Difluorophenyl)ethynyl)-1-methyl-1H-indole], for which the inhibition at 1 µM in data set [1] (setting [7]) is over 75%; in data set [1] (setting [5]), 77.7 ± 13.6%. Besides, the inhibition at 0.1 µM in data set [1] (setting [4]) was found to be 3 ± 5.6%. In addition, in data set [1] (setting [6]), the inhibition at 10 µM was found to be 95.2 ± 1%.
The compound `CN(C)c1ccnc2ccc(C#Cc3c(F)cccc3F)cc12` [Compound 5ff, 6-((2,6-Difluorophenyl)ethynyl)-N,N-dimethylquinolin-4-amine] yielded a melting point of 118 to 120 °C. Further, the inhibition at 1 µM in data set [1] (setting [8]) is over 75%. Besides, in data set [1] (setting [9]), the inhibition at 0.1 µM was 0%, the inhibition at 1 µM worked out at 81.3 ± 1.4% and the inhibition at 10 µM turned out to be 95.5 ± 2%.
In the case of `Fc1cccc(F)c1C#Cc1cccc2[nH]ncc12` [Compound 5g, 4-((2,6-Difluorophenyl)ethynyl)-1H-indazole], the melting point fell in the range of 178 to 179 °C. In data set [1] (setting [9]), the inhibition at 1 µM was determined as 19.8 ± 13.6% and the inhibition at 10 µM was determined as 96.2 ± 2%.
`Fc1cccc(F)c1C#Cc1nccc2ccccc12` [Compound 5gg, 1-((2,6-Difluorophenyl)ethynyl)isoquinoline]: the melting point fell in the range of 120 to 122 °C. Moreover, the inhibition at 1 µM in data set [1] (setting [5]) was found to be 35.4 ± 15%. In addition, the inhibition at 10 µM in data set [1] (setting [6]) amounted to 96.7 ± 0.2%.
`Fc1cccc(F)c1C#Cc1ccc2[nH]ncc2c1` [Compound 5h, 5-((2,6-Difluorophenyl)ethynyl)-1H-indazole] came in with a melting point of 193 to 195 °C. In data set [1] (setting [9]), the inhibition at 1 µM is 17.6 ± 7.9% and the inhibition at 10 µM is 82.9 ± 9.8%.
As for `Fc1cccc(F)c1C#Cc1cncc2ccccc12` [Compound 5hh, 4-((2,6-Difluorophenyl)ethynyl)isoquinoline], the melting point lay within 102 to 104 °C. Moreover, the inhibition at 1 µM in data set [1] (setting [5]) was determined as 16.5 ± 2.1%. Also, the inhibition at 10 µM in data set [1] (setting [6]) worked out at 87.9 ± 1%.
With `Fc1cccc(F)c1C#Cc1ccc2cn[nH]c2c1` [Compound 5i, 6-((2,6-Difluorophenyl)ethynyl)-1H-indazole], the melting point was 192 to 194 °C. In addition, the inhibition at 1 µM in data set [1] (setting [8]) is over 75%. For the same compound, in data set [1] (setting [9]), the inhibition at 1 µM came out at 81.5 ± 2.9% and the inhibition at 10 µM was determined as 97 ± 1.1%.
In turn, `Fc1cccc(F)c1C#Cc1cccc2cnccc12` [Compound 5ii, 5-((2,6-Difluorophenyl)ethynyl)isoquinoline] came in with a melting point of 115 to 117 °C. For the same compound, the inhibition at 1 µM in data set [1] (setting [5]) turned out to be 64.2 ± 6.1%. Besides, the inhibition at 10 µM in data set [1] (setting [6]) is 93.6 ± 0.5%.
`Cn1ncc2cc(C#Cc3c(F)cccc3F)ccc21` [Compound 5j, 5-((2,6-difluorophenyl)ethynyl)-1-methyl-1H-indazole]: the melting point fell in the range of 107 to 109 °C. The inhibition at 0.1 µM in data set [1] (setting [4]) is 0%. The inhibition at 1 µM in data set [1] (setting [5]) was found to be 58.4 ± 9.6%. Moreover, the inhibition at 10 µM in data set [1] (setting [6]) came to 94.6 ± 3.5%.
On to `Fc1cccc(F)c1C#Cc1ccc2cnccc2c1` [Compound 5jj, 6-((2,6-difluorophenyl)ethynyl)isoquinoline], for which the melting point is 97 to 99 °C. Besides, in data set [1] (setting [5]), the inhibition at 1 µM was determined as 11.6 ± 21.3%. The inhibition at 10 µM in data set [1] (setting [6]) turned out to be 82.4 ± 10.2%.
As to `Fc1cccc(F)c1C#Cc1cnc2[nH]ccc2c1` [Compound 5l, 5-((2,6-Difluorephenyl)ethynyl)-1H-pyrrolo[2,3-b]pyridine], the “inhibition of cell proliferation (%) of colon cancer LS174T cells” value was determined as 17.3 ± 12.0% in data set [1] (Table 2, 1 μM) and 77.9 ± 8.9% in data set [1] (Table 2, 10 μM).
As to `Nc1ccc2ncc(C#Cc3c(F)cccc3F)cc2c1` [Compound 5r, 3-((2,6-Ditfluorophenyl)ethynyl)quinolin-6-amine], in data set [1] (Table 2, 10 μM), the “inhibition of cell proliferation (%) of colon cancer LS174T cells” value is listed as 9.2 ± 15.7%.
For `CN(C)c1ccc(C#Cc2c(F)cncc2F)cc1` [Compound 7d, 4-((3,5-Difluoropyridin-4-yl)ethynyl)-N,N-dimethylaniline], the entries for the “effects on LS174T colon cancer cell proliferation (Table 3)” value in data set [1] (30 nM), in data set [1] (100 nM) and in data set [1] (300 nM) were 16.7, 20.4 and 60.6, respectively.
